Data: patent publication US20060052341A1, “Control of a biological function” (priority 2002, published 2006)
Like-named read-outs stand apart in the source and are kept apart here.

Key:
[1] = tested on: cattle; test: Luteolysis studies with intravaginal sodium cloprostenol; type: in vivo
Experimental: In effecting the desired delivery regime for the present invention as directed to use in controlling bestrus in cattle, a number of studies were conducted. […] There is no reliable blood test for sodium cloprostenol. The best test is to assess the success of luteolysis following application of sodium cloprostenol.

[2] = tested on: dairy cows; conditions: seven hundred and thirty seven dairy cows, three years; cited from earlier work
[3] = rat, in vivo; cited from earlier work
[4] = in vivo; conditions: female, cattle
From the text: In the urine, up to 30% of an administered dose appears as a conjugate of glucuronic acid and pregnanediol.

[5] = cited from earlier work
[6] = Serum oestradiol after intravaginal release of oestradiol 17β/cyclodextrin tablets; oestradiol half life; type: in vivo, cattle
Experimental: However, oestradiol benzoate is only one of the preferred oestrogen component of the present invention.
For the purpose of the present invention as exampled via the control of oestrus in cattle, release of oestrogen tablets into the vagina was carefully timed and recorded. […] A 1 mg dose produced maximum mean values of 130-180 pg/ml at 100-130 minutes after treatment, while a 2 mg dose led to maxima of 180 to >250 pg at 120-150 minutes.
A 1 mg dose produced maximum mean values of 130-180 pg/ml at 100-130 minutes after treatment, while a 2 mg dose led to maxima of 180 to >250 pg at 120-150 minutes, as illustrated in FIG. 11.

[7] = prior art, cited from earlier work
[8] = 24 mg controlled release implants, non-pregnant heifers; cited from earlier work
[9] = within 6 hours of ingesting 1.5 g, human subjects; cited from earlier work
[10] = treated cows; cited from earlier work
[11] = 1 mg dose, intravaginal tablet with cyclodextrin carrier
[12] = 7.2 mg oestradiol 17β intravaginally
[13] = 1 mg oestradiol benzoate by intramuscular injection
[14] = vaginal administration of 10 mg oestradiol benzoate

SMILES: O=C(O)CCC/C=C\CC1C(O)CC(O)C1/C=C/C(O)COc1cccc(Cl)c1 (stereo not drawn) [sodium cloprostenol, cloprostenol sodium]
- response to treatment compared with prior art intramuscular injection of prostaglandin alone ([1]; HPβCD carrier, increased dose rate): equivalent response
- luteolytic effect ([1]; intravaginal, without a suitable carrier, at the level dosed): not having a complete luteolic effect
- luteolytic effect ([1]; same dose administered with HPβCD): incomplete luteolysis
- side effects on subsequent fertility [2]: no chronic side effects on subsequent fertility

SMILES: CC(=O)[C@H]1CC[C@H]2[C@@H]3CCC4=CC(=O)CC[C@]4(C)[C@H]3CC[C@]12C [progesterone]
- LD100 [3]: 327.1 mg/kg
- half-life [4]: ~20 min
- half-life of progesterone in blood ([5]; in vivo): only a few minutes

SMILES: C[C@]12CC[C@@H]3c4ccc(O)cc4CC[C@H]3[C@@H]1CC[C@@H]2O [oestradiol 17β, oestra-1,3,5 (10)-triene-3,17β-diol]
- maximum mean serum oestradiol [6, 11]: 130 to 180 pg/mL
- time of maximum serum oestradiol after treatment [6, 11]: 100 to 130 min
- time of maxima of serum oestradiol ([6]; 2 mg dose, intravaginal tablet with cyclodextrin carrier): 120 to 150 min
- time for serum oestradiol to reach peak values from basal levels ([6]; intravaginal oestrogen tablets): 2 to 3 h
- half life ([6]; oestradiol without the benzoate component): only a few minutes
- peak plasma oestradiol concentration ([7]; 7.2 mg oestradiol 17β intravaginally with cyclodextrin): 10 to 20 pg/mL
- duration of elevated plasma levels [7, 12]: at least 24 hours
- time of peak plasma oestradiol [7, 12]: four

SMILES: C[C@]12CC[C@@H]3c4ccc(O)cc4CC[C@H]3[C@@H]1CC[C@@H]2O [oestradiol]
- oestrogen levels in tissues of slaughtered animals [8]: not significantly different from untreated animals

SMILES: OCc1ccccc1 [benzyl alcohol]
- dose eliminated in the urine as hippuric acid [9]: 75% to 85%

SMILES: CCCCC[C@H](O)/C=C/[C@@H]1[C@@H](C/C=C\CCCC(=O)O)[C@@H](O)C[C@H]1O [prostaglandin PGF2α, prostaglandin F2α]
- half-life ([5]; rapid breakdown): a few minutes
- half-life in the blood [10]: three

SMILES: C[C@]12CC[C@@H]3c4ccc(OC(=O)c5ccccc5)cc4CC[C@H]3[C@@H]1CC[C@@H]2O [oestradiol benzoate, oestra-1,3,5 (10)-triene-3,17β-diol 3-benzoate]
- half life ([6]; bovine, in vivo): longer than two to three minutes
- peak plasma oestradiol concentration [7, 13]: 8 to 13 pg/mL
- time of peak plasma oestradiol [7, 13]: approximately 2 hours
- peak plasma oestradiol concentration [7, 14]: 2 to 5 pg/mL
- time of peak plasma oestradiol [7, 14]: 2 to 48 h
